# System: Haemaphysalis longicornis
# Test: Test Example 11: filter paper bag contact test on ticks
# Type: in vivo
# Conditions: 48 h, 0.5 mg test compound on 5 cm×10 cm filter paper, after 2 days
# Procedure: 0.5 mg of the test compound was dissolved to […]. Onto one side of filter paper having 5 cm×10 cm, the solution was applied uniformly and then air-dried. Thereafter, the filter paper was folded in half and fixed by paper clips at the side to form bag like shape. Ten Haemaphysalis longicornis was put into the bag, and then the bag was closed with a paper clip. After 2 days, the number of dead insects was examined.
row,SMILES,mortality at 0.5 mg/filter paper
1,"C(=CC(=Nc1ccccc1)Sc1ccccc1)Sc1ccccc1 [(1), Phenyl N-phenyl-3-(phenylthio)thioacrylimidate]",100%
2,"Clc1ccc(SC(C=CSc2ccccc2)=Nc2ccccc2)cc1 [(2), 4-Chlorophenyl N-phenyl-3-(phenylthio)thioacrylimidate]",100%
3,"Clc1cccc(SC(C=CSc2ccccc2)=Nc2ccccc2)c1 [(3), 3-Chlorophenyl N-phenyl-3-(phenylthio)thioacrylimidate]",100%
4,"Clc1ccccc1SC(C=CSc1ccccc1)=Nc1ccccc1 [(4), 2-Chlorophenyl N-phenyl-3-(phenylthio)thioacrylimidate]",100%
5,"COc1ccc(SC(C=CSc2ccccc2)=Nc2ccccc2)cc1 [(26), 4-Methoxyphenyl N-phenyl-3-(phenylthio)thioacrylimidate]",100%
6,"Cc1ccc(N=C(C=CSc2ccccc2)Sc2ccccc2)cc1 [(28), Phenyl N-(4-methylphenyl)-3-phenylthiothioacrylimidate]",100%
7,"C(=CC(=Nc1ccccc1)Sc1ccccc1)Oc1ccccc1 [(35), Phenyl N-phenyl-3-(phenoxy)thioacrylimidate]",100%
8,"C(=CC(=Nc1ccccc1)Oc1ccccc1)Sc1ccccc1 [(37), Phenyl N-phenyl-3-(phenylthio)acrylimidate]",100%
9,"Clc1ccc(N=C(C=COc2ccccc2)Oc2ccccc2)cc1 [(43), Phenyl N-(4-chlorophenyl)-3-(phenoxy)acrylimidate]",100%
10,"Clc1cccc(N=C(C=COc2ccccc2)Oc2ccccc2)c1 [(45), Phenyl N-(3-chlorophenyl)-3-(phenoxy)acrylimidate]",100%
11,"Fc1ccccc1N=C(C=CSc1ccccc1)Oc1ccccc1 [(48), Phenyl N-(2-fluorophenyl)-3-(phenylthio)acrylimidate]",100%
12,"Fc1ccc(N=C(C=CSc2ccccc2)Oc2ccccc2)cc1 [(50), Phenyl N-(4-fluorophenyl)-3-(phenylthio)acrylimidate]",100%
13,"Fc1cccc(N=C(C=CSc2ccccc2)Oc2ccccc2)c1 [(51), Phenyl N-(3-fluorophenyl)-3-(phenylthio)acrylimidate]",100%
14,"FC(F)(F)c1ccc(N=C(C=CSc2ccccc2)Oc2ccccc2)cc1 [(52), Phenyl N-(4-trifluoromethylphenyl)-3-(phenylthio)acrylimidate]",100%
15,"Cc1ccc(N=C(C=CSc2ccccc2)Oc2ccccc2)cc1 [(54), Phenyl N-(4-methylphenyl)-3-(phenylthio)acrylimidate]",100%
16,"Clc1ccc(N=C(C=COc2ccccc2)Oc2ccccc2)cc1Cl [(59), Phenyl N-(3,4-dichlorophenyl)-3-(phenoxy)acrylimidate]",100%
17,"CCc1ccc(N=C(C=CSc2ccccc2)Oc2ccccc2)cc1 [(63), Phenyl N-(4-ethylphenyl)-3-(phenylthio)acrylimidate]",100%
18,"Cc1cccc(N=C(C=COc2ccccc2)Oc2ccccc2)c1 [(69), Phenyl N-(3-methylphenyl)-3-(phenoxy)acrylimidate]",100%
19,"Fc1ccc(N=C(C=COc2ccccc2)Oc2ccccc2)cc1 [(75), Phenyl N-(4-fluorophenyl)-3-(phenoxy)acrylimidate]",100%
20,"Brc1ccc(N=C(C=COc2ccccc2)Oc2ccccc2)cc1 [(77), Phenyl N-(4-bromophenyl)-3-(phenoxy)acrylimidate]",100%
21,"Ic1ccc(N=C(C=COc2ccccc2)Oc2ccccc2)cc1 [(80), Phenyl N-(4-iodophenyl)-3-(phenoxy)acrylimidate]",100%
22,"Cc1ccc(OC(C=CSc2ccccc2)=Nc2ccc(C(C)C)cc2)cc1 [(88), 4-Methylphenyl N-[4-(1-methylethyl)phenyl]-3-(phenylthio)acrylimidate]",100%
23,"Brc1cccc(SC=CC(=Nc2ccccc2)Oc2ccccc2)c1 [(101), Phenyl 3-(3-bromophenylthio)-N-phenylacrylimidate]",100%
24,"Brc1ccc(SC=CC(=Nc2ccccc2)Oc2ccccc2)cc1 [(102), Phenyl 3-(4-bromophenylthio)-N-phenylacrylimidate]",100%
25,"Fc1ccc(SC=CC(=Nc2ccccc2)Oc2ccccc2)cc1 [(103), Phenyl 3-(4-fluorophenylthio)-N-phenylacrylimidate]",100%
26,"Fc1ccccc1SC=CC(=Nc1ccccc1)Oc1ccccc1 [(104), Phenyl 3-(2-fluorophenylthio)-N-phenylacrylimidate]",100%
27,"Cc1cccc(SC=CC(=Nc2ccccc2)Oc2ccccc2)c1 [(106), Phenyl 3-(3-methylphenylthio)-N-phenylacrylimidate]",100%

row,SMILES,mortality at 0.5 mg/filter paper
1,"COc1cccc(SC=CC(=Nc2ccccc2)Oc2ccccc2)c1 [(107), Phenyl 3-(3-methoxyphenylthio)-N-phenylacrylimidate]",100%
2,"FC(F)(F)c1cccc(SC=CC(=Nc2ccccc2)Oc2ccccc2)c1 [(111), Phenyl N-phenyl-3-(3-trifluoromethylphenylthio)acrylimidate]",100%
3,"Fc1cccc(SC=CC(=Nc2ccccc2)Oc2ccccc2)c1 [(113), Phenyl 3-(3-fluorophenylthio)-N-phenylacrylimidate]",100%
4,"Cc1ccc(SC=CC(=Nc2ccccc2)Oc2ccccc2)cc1 [(118), Phenyl 3-(4-methylphenylthio)-N-phenylacrylimidate]",100%
5,"Cc1ccc(SC=CC(=Nc2ccccc2)Oc2ccccc2)c(C)c1 [(119), Phenyl 3-(2,4-dimethylphenylthio)-N-phenylacrylimidate]",100%
6,"Cc1ccc(C)c(SC=CC(=Nc2ccccc2)Oc2ccccc2)c1 [(120), Phenyl 3-(2,5-dimethylphenylthio)-N-phenylacrylimidate]",100%
7,"Cc1cc(C)cc(SC=CC(=Nc2ccccc2)Oc2ccccc2)c1 [(121), Phenyl 3-(3,5-dimethylphenylthio)-N-phenylacrylimidate]",100%
8,"CC(C)c1ccccc1SC=CC(=Nc1ccccc1)Oc1ccccc1 [(122), Phenyl 3-[2-(1-methylethyl)phenylthio]-N-phenylacrylimidate]",100%
9,"FC(F)(F)c1ccc(SC=CC(=Nc2ccccc2)Oc2ccccc2)cc1 [(123), Phenyl N-phenyl-3-(4-trifluoromethylphenylthio)acrylimidate]",100%
10,"COc1ccc(SC=CC(=Nc2ccccc2)Oc2ccccc2)cc1 [(146), Phenyl 3-(4-methoxyphenylthio)-N-phenylacrylimidate]",100%
11,"C#Cc1ccc(N=C(C=COc2ccccc2)Oc2ccccc2)cc1 [(156), Phenyl N-(4-ethynylphenyl)-3-(phenoxy)acrylimidate]",100%
12,"C=CCSC(C=CSc1ccccc1)=Nc1ccccc1 [(186), 2-Propenyl N-phenyl-3-(phenylthio)thioacrylimidate]",100%
13,"C(=CC(=Nc1ccccc1)SC1CCCCC1)Sc1ccccc1 [(187), Cyclohexyl N-phenyl-3-(phenylthio)thioacrylimidate]",100%
14,"CC(C)c1ccc(N=C(C=CSc2ccccc2)Oc2ccc(N)cc2)cc1 [(188), 4-Aminophenyl N-[4-(1-methylethyl)phenyl]-3-(phenylthio)acrylimidate]",100%
15,"FC(F)(F)Oc1ccc(N=C(C=COc2ccccc2)Oc2ccccc2)cc1 [(207), Phenyl N-(4-trifluoromethoxyphenyl)-3-phenoxyacrylimidate]",100%
16,"Fc1ccc(N=C(C=CSc2ccccc2)Sc2ccccc2)cc1 [(264), Phenyl N-(4-fluorophenyl)-3-(phenylthio)thioacrylimidate]",100%
17,"Cc1ccc(N=C(C=CSc2ccccc2)SC(C)(C)C)cc1 [(265), 1,1-Dimethylethyl N-(4-methylphenyl)-3-(phenylthio)thioacrylimidate]",100%
18,"CCSC(C=CSc1ccccc1)=Nc1ccc(C)cc1 [(266), Ethyl N-(4-methylphenyl)-3-(phenylthio)thioacrylimidate]",100%
19,"Fc1ccc(N=C(C=CSc2ccccc2)Sc2ccc(F)cc2)cc1 [(278), 4-Fluorophenyl N-(4-fluorophenyl)-3-(phenylthio)thioacrylimidate]",100%
20,"CCCSC(C=CSc1ccccc1)=Nc1ccc(C)cc1 [(280), Propyl N-(4-methylphenyl)-3-(phenylthio)thioacrylimidate]",100%
21,"CCCCSC(C=CSc1ccccc1)=Nc1ccc(C)cc1 [(284), Butyl N-(4-methylphenyl)-3-(phenylthio)thioacrylimidate]",100%
22,"Cc1ccc(N=C(C=CSc2ccccc2)SCC(C)C)cc1 [(321), 2-Methylpropyl N-(4-methylphenyl)-3-(phenylthio)thioacrylimidate]",100%
23,"CCC(C)SC(C=CSc1ccccc1)=Nc1ccc(C)cc1 (centres unmarked) [(324), 1-Methylpropyl N-(4-methylphenyl)-3-(phenylthio)thioacrylimidate]",100%
24,"Cc1ccc(N=C(C=CSc2ccccc2)SC2CCCC2)cc1 [(333), Cyclopentyl N-(4-methylphenyl)-3-(phenylthio)thioacrylimidate]",100%
25,"Cc1ccc(N=C(C=CSc2ccccc2F)SCC2CCCCC2)cc1 [(341), Cyclohexylmethyl 3-(2-fluorophenylthio)-N-(4-methylphenyl)-thioacrylimidate]",100%
26,"Cc1ccc(N=C(C=CSc2ccccc2F)SCC(C)C)cc1 [(428), Isobutyl 3-(2-fluorophenylthio)-N-(4-methylphenyl)thioacrylimidate]",100%

# Source: patent publication US8084644B2, “Iminopropene compound and use thereof” (Sumitomo Chemical Company, Limited, priority 2005, dated 2011)
